Experimental data taken from patent publication US5527907A, “Macrolide immunomodulators” (Abbott Laboratories, priority 1994, dated 1996).
Where two headings read alike, the source gives them in different places. Each block holds one compound with its values, some of them ahead of it.

Key:
[1] = tested on: human mixed lymphocyte reaction; experiment: human mixed lymphocyte reaction (MLR) assay; assay type: cell-based
Description: The immunosuppressant activity of the compounds of the present invention was determined using the human mixed lymphocyte reaction (MLR) assay described by Kino, T. et al. in Transplantation Proceedings, XIX(5):36-39,Suppl. 6 (1987).

[2] = tested on: Candida albicans; conditions: particularly against Candida albicans, both in vitro and in vivo; cited from earlier work
[3] = alone or in combination with picibanil; cited from earlier work
[4] = tested on: experimental allergic encephalomyelitis; conditions: model for multiple sclerosis; cited from earlier work
[5] = tested on: adjuvant arthritis; conditions: model for rheumatoid arthritis; cited from earlier work
[6] = tested on: formation of IgE-like antibodies; conditions: cited from earlier work
[7] = tested on: organ grafts in histoincompatible rodents; conditions: cited from earlier work
[8] = tested on: T-cell activation; conditions: cited from earlier work
[9] = tested on: FKBP-12; conditions: cited from earlier work
[10] = Mixed Leukocyte Response (MLR), Table 1, read-out: IC50

IC50 [1, 10]: 1810 pM
SMILES: CO[C@H]1C[C@@H]2CC[C@@H](C)[C@@](O)(O2)C(=O)C(=O)N2CCCC[C@H]2C(=O)O[C@H]([C@H](C)C[C@@H]2CC[C@H](OC)[C@H](OC)C2)CC(=O)[C@H](C)/C=C(\C)[C@@H](O)[C@@H](OC)C(=O)[C@H](C)C[C@H](C)/C=C/C=C/C=C/1C [Example 74]

IC50 [1, 10]: 120 pM
SMILES: CO[C@H]1C[C@@H]2CC[C@@H](C)[C@@](O)(O2)C(=O)C(=O)N2CCCC[C@H]2C(=O)O[C@H]([C@H](C)C[C@@H]2CC[C@H](n3ccc(=O)cc3)[C@H](OC)C2)CC(=O)[C@H](C)/C=C(\C)[C@@H](O)[C@@H](OC)C(=O)[C@H](C)C[C@H](C)/C=C/C=C/C=C/1C [Example 71]

IC50 [1, 10]: 140 pM
SMILES: CO[C@H]1C[C@@H]2CC[C@@H](C)[C@@](O)(O2)C(=O)C(=O)N2CCCC[C@H]2C(=O)O[C@H]([C@H](C)C[C@@H]2CC[C@H](Sc3nccn3C)[C@H](OC)C2)CC(=O)[C@H](C)/C=C(\C)[C@@H](O)[C@@H](OC)C(=O)[C@H](C)C[C@H](C)/C=C/C=C/C=C/1C [Example 39]

SMILES: CO[C@H]1C[C@@H]2CC[C@@H](C)[C@@](O)(O2)C(=O)C(=O)N2CCCC[C@H]2C(=O)O[C@H]([C@H](C)C[C@@H]2CC[C@@H](O)[C@H](OC)C2)CC(=O)[C@H](C)/C=C(\C)[C@@H](O)[C@@H](OC)C(=O)[C@H](C)C[C@H](C)/C=C/C=C/C=C/1C [rapamycin]
antifungal activity [2]: antifungal activity | antitumor activity [3]: antitumor activity | effectiveness as an immunosuppressant [4]: effective as an immunosuppressant | effectiveness as an immunosuppressant [5]: effective as an immunosuppressant | inhibition of formation of IgE-like antibodies [6]: effectively inhibit the formation of IgE-like antibodies | survival time of organ grafts [7]: prolong survival time of organ grafts | inhibition of T-cell activation [8]: inhibit T-cell activation | binding to FKBP-12 [9]: binds to FKBP-12

IC50 [1, 10]: 960 pM
SMILES: CO[C@H]1C[C@@H]2CC[C@@H](C)[C@@](O)(O2)C(=O)C(=O)N2CCCC[C@H]2C(=O)O[C@H]([C@H](C)C[C@@H]2CC[C@H](N=[N+]=[N-])[C@H](OC)C2)CC(=O)[C@H](C)/C=C(\C)[C@@H](O)[C@@H](OC)C(=O)[C@H](C)C[C@H](C)/C=C/C=C/C=C/1C [Example 50]

SMILES: C=CC[C@@H]1/C=C(\C)C[C@H](C)C[C@H](OC)[C@H]2O[C@@](O)(C(=O)C(=O)N3CCCC[C@H]3C(=O)O[C@H](/C(C)=C/[C@@H]3CC[C@@H](O)[C@H](OC)C3)[C@H](C)[C@@H](O)CC1=O)[C@H](C)C[C@@H]2OC [FK-506]
binding to FKBP-12 [9]: binds to FKBP-12

IC50 [1, 10]: 30 pM
SMILES: CO[C@H]1C[C@@H]2CC[C@@H](C)[C@@](O)(O2)C(=O)C(=O)N2CCCC[C@H]2C(=O)O[C@H]([C@H](C)C[C@@H]2CC[C@H](Sc3ncc[nH]3)[C@H](OC)C2)CC(=O)[C@H](C)/C=C(\C)[C@@H](O)[C@@H](OC)C(=O)[C@H](C)C[C@H](C)/C=C/C=C/C=C/1C [Example 38]

IC50 [1, 10]: 990 pM
SMILES: CO[C@H]1C[C@@H]2CC[C@@H](C)[C@@](O)(O2)C(=O)C(=O)N2CCCC[C@H]2C(=O)O[C@H]([C@H](C)C[C@@H]2CC[C@H](n3ccccc3=O)[C@H](OC)C2)CC(=O)[C@H](C)/C=C(\C)[C@@H](O)[C@@H](OC)C(=O)[C@H](C)C[C@H](C)/C=C/C=C/C=C/1C [Example 72]

IC50 [1, 10]: 150 pM
SMILES: CO[C@H]1C[C@@H]2CC[C@@H](C)[C@@](O)(O2)C(=O)C(=O)N2CCCC[C@H]2C(=O)O[C@H]([C@H](C)C[C@@H]2CC[C@@H](OC(=O)N(C)OC)[C@H](OC)C2)CC(=O)[C@H](C)/C=C(\C)[C@@H](O)[C@@H](OC)C(=O)[C@H](C)C[C@H](C)/C=C/C=C/C=C/1C [Example 17]

IC50 [1, 10]: 130 pM
SMILES: CO[C@H]1C[C@@H]2CC[C@@H](C)[C@@](O)(O2)C(=O)C(=O)N2CCCC[C@H]2C(=O)O[C@H]([C@H](C)C[C@@H]2CC[C@@H](OC(=O)N3CCOCC3)[C@H](OC)C2)CC(=O)[C@H](C)/C=C(\C)[C@@H](O)[C@@H](OC)C(=O)[C@H](C)C[C@H](C)/C=C/C=C/C=C/1C [Example 3]

SMILES: CO[C@H]1C[C@@H]2CC[C@@H](C)[C@@](O)(O2)C(=O)C(=O)N2CCCC[C@H]2C(=O)O[C@H]([C@H](C)C[C@@H]2CC[C@H](O)[C@H](OC)C2)CC(=O)[C@H](C)/C=C(\C)[C@@H](O)[C@@H](OC)C(=O)[C@H](C)C[C@H](C)/C=C/C=C/C=C/1C [Example 10, 42-epi-rapamycin]
IC50 [1]: 30 pM
